Reference: the supplement of paper PMC5908809

How the values were obtained:
[1] = test system: normal NK cells expanded with K562-aAPC; assay: percent inhibition of viability; higher = more inhibition; conditions: 72 h, IL-2 2.5 ng/mL
Description: (§1)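 Drug sensitivity and resistance testing on K562-aAPC-expanded normal NK cells: 5 concentrations (10-fold steps over a 10,000-fold range), 72 h at 37 °C, viability by CellTiter-Glo normalised to DMSO and benzethonium chloride controls; DSS from the fitted curve.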

[2] = test system: IMC-1 (IL-2 20 ng/mL); assay: drug sensitivity score (DSS) (DSS units); higher = more sensitive; extreme values may be limits of the assay; conditions: 72 h
[3] = test system: normal primary NK cells, pool 2 (3 donors) (IL-2 2.5 ng/mL); assay: as above; conditions: 72 h
[4] = test system: DERL-7 (IL-2 2.5 ng/mL); assay: as above; conditions: 72 h
[5] = test system: normal primary NK cells, pool 3 (3 donors) (IL-2 2.5 ng/mL); assay: as above; conditions: 72 h
[6] = test system: normal primary NK cells, pool 1 (3 donors), resting (IL-2 0 ng/mL); assay: as above; conditions: 72 h
[7] = test system: NK-YS (IL-2 2.5 ng/mL); assay: as above; conditions: 72 h
[8] = test system: YT (IL-2 2.5 ng/mL); assay: as above; conditions: 72 h
[9] = test system: NKL (IL-2 2.5 ng/mL); assay: as above; conditions: 72 h
[10] = test system: SNK-6 (IL-2 2.5 ng/mL); assay: as above; conditions: 72 h
[11] = test system: NK-92 (IL-2 2.5 ng/mL); assay: as above; conditions: 72 h
[12] = test system: KAI3 (IL-2 2.5 ng/mL); assay: as above; conditions: 72 h
[13] = test system: normal primary NK cells, pool 1 (3 donors) (IL-2 2.5 ng/mL); assay: as above; conditions: 72 h
[14] = test system: KHYG-1 (IL-2 2.5 ng/mL); assay: as above; conditions: 72 h
[15] = test system: IMC-1 (IL-2 20 ng/mL); assay: percent inhibition of viability; higher = more inhibition; conditions: 72 h
[16] = test system: normal primary NK cells, pool 2 (3 donors) (IL-2 2.5 ng/mL); assay: as above; conditions: 72 h
[17] = test system: DERL-7 (IL-2 2.5 ng/mL); assay: as above; conditions: 72 h
[18] = test system: normal primary NK cells, pool 3 (3 donors) (IL-2 2.5 ng/mL); assay: as above; conditions: 72 h
[19] = test system: normal primary NK cells, pool 1 (3 donors), resting (IL-2 0 ng/mL); assay: as above; conditions: 72 h
[20] = test system: NK-YS (IL-2 2.5 ng/mL); assay: as above; conditions: 72 h
[21] = test system: YT (IL-2 2.5 ng/mL); assay: as above; conditions: 72 h
[22] = test system: NKL (IL-2 2.5 ng/mL); assay: as above; conditions: 72 h
[23] = test system: SNK-6 (IL-2 2.5 ng/mL); assay: as above; conditions: 72 h
[24] = test system: NK-92 (IL-2 2.5 ng/mL); assay: as above; conditions: 72 h
[25] = test system: KAI3 (IL-2 2.5 ng/mL); assay: as above; conditions: 72 h
[26] = test system: normal primary NK cells, pool 1 (3 donors) (IL-2 2.5 ng/mL); assay: as above; conditions: 72 h
[27] = test system: KHYG-1 (IL-2 2.5 ng/mL); assay: as above; conditions: 72 h
[28] = test system: normal NK cells expanded with K562-aAPC; assay: drug sensitivity score (DSS) (DSS units); higher = more sensitive; extreme values may be limits of the assay; conditions: 72 h; IL-2 2.5 ng/mL
Description: as §1

Nc1ccccc1NC(=O)c1ccc(CNC(=O)OCc2cccnc2)cc1 [Entinostat] (max concentration tested 10000 nM)
percent inhibition of viability [%]
Conditions | 1 nM | 10 nM | 100 nM | 1000 nM | 10000 nM
[1] | -3.4 | 0.57 | -3.46 | 17.8 | 99.5
[15] | 2.59 | 0.46 | 1.95 | 10.1 | 99.8
[16] | -6.42 | -3.08 | -10.5 | 24.5 | 95.8
[17] | 0.45 | 2.75 | -7.22 | 24.5 | 99.7
[18] | -13.6 | -2.26 | -9.76 | 3.4 | 97.7
[19] | -8 | -8.09 | 10.2 | 61.1 | 92.3
[20] | -7.17 | -13.1 | -7.95 | 20.5 | 95.3
[21] | 0.9 | -0.08 | 4.17 | 7.95 | 93.3
[22] | -7.74 | -3.03 | 2.66 | 77.8 | 94
[23] | 9.17 | 8.55 | 15.6 | 65 | 95.2
[24] | -11.3 | -2.61 | 7.67 | 73.5 | 96.4
[25] | -0.78 | 3.8 | 18.4 | 66.9 | 94
[26] | -1.3 | 1.71 | 4.63 | 34.1 | 97.6
[27] | -9.03 | -10.2 | -4.46 | 50.8 | 95.8

Conditions | drug sensitivity score
[2] | 7.18
[3] | 9.03
[4] | 9.28
[5] | 5.88
[6] | 13
[7] | 8.53
[8] | 6.43
[9] | 14.6
[10] | 14.4
[11] | 14.8
[12] | 14.8
[13] | 9.83
[14] | 11.5
[28] | 8.42

CC(C)C[C@H](NC(=O)[C@H](Cc1ccccc1)NC(=O)c1cnccn1)B(O)O [Bortezomib] (max concentration tested 1000 nM)
percent inhibition of viability [%]
Conditions | 0.1 nM | 1 nM | 10 nM | 100 nM | 1000 nM
[1] | -2.23 | 4.9 | 100 | 101 | 100
[15] | -1.29 | -3.94 | 101 | 101 | 101
[16] | -2.25 | 0.14 | 94.5 | 95.3 | 96.2
[17] | -10.9 | 21.2 | 101 | 101 | 100
[18] | -3.11 | -8.2 | 98.5 | 98.7 | 99.1
[19] | -34.8 | -55 | 91.9 | 94.3 | 94
[20] | -5.54 | -1.32 | 104 | 106 | 98.5
[21] | -2.41 | 0.1 | 103 | 107 | 101
[22] | -12.9 | -8.26 | 105 | 107 | 98.5
[23] | 21.6 | 12.7 | 98.5 | 101 | 100
[24] | -4.96 | -5.77 | 102 | 107 | 98.3
[25] | -14.4 | -0.34 | 102 | 105 | 97
[26] | -11.7 | -7.66 | 97.5 | 98.1 | 98.4
[27] | -3.11 | -0.47 | 105 | 108 | 100

Conditions | drug sensitivity score
[2] | 30.2
[3] | 29.2
[4] | 33.9
[5] | 29.5
[6] | 26.8
[7] | 30.7
[8] | 30.8
[9] | 30.3
[10] | 32.6
[11] | 30.2
[12] | 30.6
[13] | 29.3
[14] | 30.9
[28] | 31.2

CC[C@@H]1C(=O)N(C)c2cnc(Nc3ccc(C(=O)NC4CCN(C)CC4)cc3OC)nc2N1C1CCCC1 [BI 2536] (max concentration tested 1000 nM)
percent inhibition of viability [%]
Conditions | 0.1 nM | 1 nM | 10 nM | 100 nM | 1000 nM
[1] | 1.03 | 0.31 | 20.1 | 60.1 | 67.4
[15] | -3.03 | -6.74 | 26.6 | 96.7 | 95.2
[16] | -11.8 | -7.85 | -1.58 | 7 | 58.2
[17] | -1.78 | 1.66 | 56.8 | 99.1 | 96.4
[18] | -15.6 | -13.3 | -7.87 | -2.57 | 41.2
[19] | 4.96 | 13.2 | -4.79 | -10.2 | 31.4
[20] | 1.37 | 3.08 | 22.7 | 66.2 | 58.4
[21] | -0.96 | -1.95 | 5.23 | 77.8 | 74.1
[22] | -16.1 | -17.7 | 34.5 | 66.8 | 64.5
[23] | 3.37 | 2.93 | 50.7 | 61.7 | 48.1
[24] | -10.3 | -5.85 | 41.7 | 99.6 | 91.2
[25] | -2.84 | 1.84 | 32 | 55.7 | 52.9
[26] | -8.51 | 7.02 | -5.03 | -6.42 | 36.1
[27] | -0.33 | -0.33 | 11.5 | 101 | 102

Conditions | drug sensitivity score
[2] | 21.4
[3] | 4.32
[4] | 24.6
[5] | 1.86
[6] | 0.98
[7] | 15.2
[8] | 15
[9] | 16.6
[10] | 17.8
[11] | 23.4
[12] | 14.1
[13] | 1.36
[14] | 19.9
[28] | 13.5
